Assay [1] concerns Escherichia coli (strain 37.4). Description: Viable count bactericidal assay. Type of assay: cell-based. To be noted: for antibacterial activity compared with GCP-2/CXCL6 holopeptide: fragment comparison, FIG. 1b. An excerpt: (§1) The GAS strain AP1 (40/58) of M1 serotype was from the World Health Organization Collaborating Centre for Reference and Research on Streptococci, Prague, Czech Republic. Streptococcus pyogenes (strain AP1) and Streptococcus Dysgalactiae, sub species equisimilis (strain G41), Staphylococcus aureus (strain 5120), Pseudomonas aeruginosa (strain 1553 initially isolated from a chronic venous ulcer) and Escherichia coli (strain 37.4) were routinely grown in Todd-Hewitt (TH) liquid medium in 5% CO2 and at 37° C. The bacterial strains were obtained from Division of Infection Medicine, Department of Clinical Sciences, Lund University, BMC B14, Tornavagen 10, SE-221 84 Lund, Sweden.
(§2) Bacteria were cultivated to mid-log phase (OD620 0.4) in Todd-Hewitt broth, washed, and diluted in incubation buffer (10 mM Tris-Hcl pH 7.4 containing 5 mM glucose). Pseudomonas aeruginosa was grown for 18 hours at 37° C. 50 μl of bacteria (1×10^6 colony forming units (cfu)/mL) were incubated together with various concentrations of peptide or buffer alone for 1 h at 37° C. In order to quantify bactericidal activity, serial dilutions of the incubation mixtures were plated on TH agar. The number of resulting cfu:s were related to bacteria incubated with buffer alone and the results expressed as % killing.
(§3) GCP-2/CXCL6 (SEQ ID NO:3) as well as parts of CXCL6, i.r., SEQ ID NO:1 and 2 being part of CXCL6 was examined for antibacterial activity against a panel of bacteria relevant during infections of dermis and mucosal surfaces. The bacteria included Gram-positive (Group A streptococci, group G streptococci, and S. aureus) and G-negative (E. coli and P. aeruginosa) bacteria (FIG. 1 a). […] To delineate what regions of the GCP-2/CXCL6 molecule that are responsible for antibacterial activity, a 50 amino acid fragment of the NH2-terminal region (GPV-50) of GCP-2/CXCL6 and a 19 amino acid fragment (APF-19) of the COOH-terminal region (a region with a putative amphiphatic alpha-helical structure), was compared with the GCP-2/CXCL6 holopeptide. Antibacterial activity was investigated against S. pyogenes and E. coli.

Assay [2] relates to Streptococcus pyogenes (strain AP1). Description: Viable count bactericidal assay. To be noted: for antibacterial activity compared with GCP-2/CXCL6 holopeptide: fragment comparison, FIG. 1b. Type of assay: cell-based.
Description: as §1, §2, §3

The subject of a further assay is bacteria. To be noted: literature (Yang et al., 2003; Cole et al., 2001); cited from earlier work.
The next assay deals with Neisserria gonorrhoea. Description: Viable count bactericidal assay against N. gonorrhoeae. Type of assay: cell-based, Neisseria gonorrhoeae. To be noted: mean, ±SEM. Here is the method: as §2
The anti-bacterial activity of the GCP-2/CXCL6 (SEQ ID NO:3) against the gram-negative bacteria Neisserria gonorrhoea was determined using the previously described experimental set-up (See Example 3).

For assay [3], the system named is Pseudomonas aeruginosa (strain 1553). Description: Viable count bactericidal assay. It is filed as cell-based. To be noted: 1 h at 37° C., at below micromolar concentrations.
Description: as §1, §2, §3

In assay [4] the test system is Staphylococcus aureus (strain 5120). Description: Viable count bactericidal assay. To be noted: 1 h at 37° C., at below micromolar concentrations. Type of assay: cell-based.
Description: as §1, §2, §3

Assay [5] deals with Streptococcus Dysgalactiae, sub species equisimilis (strain G41). Put plainly: Viable count bactericidal assay. It is filed as cell-based. To be noted: 1 h at 37° C., at below micromolar concentrations.
Description: as §1, §2, §3

The test system of another assay is Enterococcus faecalis. Put plainly: Viable count bactericidal assay against E. faecalis. To be noted: mean, ±SEM. Type of assay: cell-based. As to the method: as §2
The anti-bacterial activity of the GCP-2/CXCL6 (SEQ ID NO:3) against the gram-positive, facultatively anaerobic bacteria Enterococcus faecalis was determined using the previously described experimental set-up (See Example 3).

Where [6] appears, read: viable count, 1 h at 37° C., at below micromolar concentrations.

Consider “GPVSAVLTELRCTCLRVTLRVNPKTIGKLQVFPAGPQCSKVEVVASLKNG (CXCL6 peptide) [GPV-50, 50 amino acid fragment of the NH2-terminal region of GCP-2/CXCL6]”, for which the “antibacterial activity compared with GCP-2/CXCL6 holopeptide” value in assay [1] and in assay [2] was “higher antibacterial activity than APF-19” throughout.
As for “CXCL5: related ELR-positive CXC chemokine, closest sequence homology to CXCL6 [reference compound]”, the activity against bacteria entry in the assay with bacteria was “no activity against bacteria”.
With “GCP-2/CXCL6: Recombinant human chemokine GCP-2/CXCL6 (SEQ ID NO:3) from PeproTech”, the MBC50 with Neisserria gonorrhoea was 0.3 ± 0.1 μM (mean, ±SEM); against Enterococcus faecalis it was 0.46 ± 0.03 μM (mean, ±SEM). The MBC90 against Neisserria gonorrhoea worked out at 0.8 ± 0.1 µM; in the assay on Enterococcus faecalis, 0.90 ± 0.00 µM. Further, the bactericidal effect result in assay [3], in assay [4], in assay [1] (setting [6]), in assay [2] (setting [6]) and in assay [5] was “bactericidal effect” each time. Besides, in the assay with bacteria, the activity against bacteria result is “no activity”.
“APFLKKVIQKILDSGNKKN (CXCL6 peptide) [APF-19, 19 amino acid fragment of the COOH-terminal region of GCP-2/CXCL6]”: the “antibacterial activity compared with GCP-2/CXCL6 holopeptide” value in assay [1] and in assay [2] was “less antibacterial than the holopeptide” each time.

These data come from patent publication US20110144000A1, “ANTIMICROBIAL POLYPEPTIDE” (priority 2007, published 2011).
